In patent US10426755B2, “Methods for inhibiting cancer cells” (Chang Gung Memorial Hospital, Chiayi, priority 2015, dated 2019):
Entries after “also recorded” stand apart in the source; their conditions may differ.

Columns and labels:
Assay type in all cases: cell-based
[1] = tested on: skp2 and downstream genes in A549 and H460 lung cancer cells; assay: skp2 and downstream gene mRNA expression, lung cancer cells; details: various concentrations of DT vs DMSO, FIG. 10 (c)-(f)
Protocol: (§1) It has been reported that skp2 plays an important role in the metastasis of cancer cells. An in vitro evaluation of the effect of DT on prostate cancer cell metastasis was performed, by measuring the mRNA expression of skp2 in the following prostate cancer cell lines: meatstatic DU145 cells (Panels i-j of FIG. 9), hormone therapy resistant and metastatic PC3 cells (Panel h of FIG. 9), and 22RV1 cells (Panels k-l of FIG. 9), A549 lung cancer cells (Panels (c)-(e) of FIG. 10), chemotherapy-resistant/metastatic H460 lung cancer cells (Panels (d) and (f) of FIG. 10), HCT116 colon cancer cells (Panels (g) and (i) of FIG. 10) and MCF7-tamoxifen resistant breast cancer cells (Panels (h) and (j) of FIG. 10) […].
(§2) The cancer cells were treated with DMSO and various concentrations of DT.

[2] = tested on: ARK2 endometrial cancer cells; assay: XTT proliferation assay, ARK2; details: 5, 10 and 20 μM DT, 1-2 days, FIG. 4
Protocol: The prostate cancer cells were plated at a density of 10^3 or 3×10^3 per well, in a 96-well plate, in a medium containing 10% Fetal bovine serum (FBS) (Gibco®, commercially available from Life Technologies, USA). Once the prostate cancer cells were attached to the culture dish, the 10% FBS medium was replaced with a second 10% FBS medium and each of the prostate cancer cell line was treated with 1, 5, and 10 μM of DT respectively for 1-2 days. The absorbance was measured using XTT assay kit (commercially available from Roche, Switzerland) at 492 nm using an ELISA reader (Bio-Rad Laboratories, USA).
An in vitro evaluation of the effect of DT on endometrial cancer cells was performed. The endometrial cancer cell lines, ARK1 and ARK2, were provided by Dr. T H Wang at Chang Gung Meorial Hospital, Linkou, Taiwan)
The endometrial cancer cells were cultured and plated according to the steps in Example 1 and each of the endometrial cancer cell line was treated with 0 (control), 5, 10 and 20 μM of DT, respectively for 1-2 days. The absorbance was measured using XTT assay kit at 492 nm using an ELISA reader.

[3] = tested on: breast cancer cells (MCF-7, tamoxifen-resistant MCF7 and MDA MB-231); assay: Annexin V/PI flow cytometry apoptosis/necrosis, breast cancer cells; details: 10 or 20 μM DT, 24-48 hours, vs PBS and control; time dependent; FIG. 8
Protocol: (§3) The effect of DT on metastatic prostate cancer cells (hormone therapy-resistant PC3, DU145 and LNCaP); lung cancer cells (A549 and chemotherapy-resistant/metastatic H460); and breast cancer cells (MCF-7, tamoxifen-resistant MCF7 and MDA MB-231) was assessed.
(§4) 1×10^6 Cancer cells were seeded in a 100-mm plate and cultured overnight. The cancer cells were treated with phosphate buffered saline (PBS), a Dimethyl sulfoxide (DMSO) vehicle (CT), 10 or 20 μM of DT for 24-48 hours, then collected and washed with cold PBS. The supernatant was removed by centrifugation and resuspended in FITC Annexin V binding buffer and Propidium iodide (PI) (Annexin V-FITC Apoptosis Detection Kit, commercially available from Strong Biotech Corporation, Taiwan). The suspended cancer cells were stained at room temperature, in the dark for 15 min and analyzed by the BD FACSCanto™ flow cytometry (Becton Dickinson, USA). The amount of early apoptosis, late apoptosis, and necrosis was measured as the percentage of annexin-V positive/PI negative (Q4 in the FACS images), annexin-V positive/PI positive (Q2 in the FACS images), and annexin-V negative/PI positive cells (Q1 in the FACS images), respectively. Normal cells are in […] of the FACS images.

[4] = tested on: skp2 and downstream genes in MCF7-tamoxifen resistant breast cancer cells; assay: skp2 and downstream gene mRNA expression, tamoxifen resistant breast cancer cells; details: various concentrations of DT vs DMSO, FIG. 10 (h), (j)
Protocol: as §1, §2

[5] = tested on: lung cancer cells (A549 and chemotherapy-resistant/metastatic H460); assay: Annexin V/PI flow cytometry apoptosis/necrosis, lung cancer cells; details: 10 or 20 μM DT, 24-48 hours, vs PBS and DMSO vehicle (CT); time dependent; FIG. 7
Protocol: as §3, §4

[6] = tested on: colorectal cancer cells (chemotherapy resistant HCT116); assay: Cell migration (wound-healing) assay, colorectal cancer cells; details: DT vs control vehicle, 24 h, dose dependent; FIG. 13 (b)
Protocol: An in vitro evaluation of the effect of DT on lung cancer cells (A549 and chemotherapy resistant/metastatic H460), prostate cancer cells (metastatic DU145) and colorectal cancer cells (chemotherapy resistant HCT116) invasion and migration was performed, using cell invasion assay and cell migration assay.
Cell Migration Assay: In vitro wound-healing assay was used to assess cell motility in two dimensions. Cancer cells were plated overnight to achieve a subconfluent cell layer in 24-well plates. A scratch was made on the cell layer with a micropipette tip, and cultures were washed twice with serum-free medium to remove floating cells. Cancer cells were incubated in a culture medium containing DT or the control vehicle. Wound healing was visualized by comparing photographs taken at the time of adding the DT/control vehicle and 24 h later. Three experiments were done in quadruplicates.

[7] = tested on: skp2, MMP2, MMP9 in DU145, PC3 and 22RV1 prostate cancer cells; assay: skp2 and downstream gene mRNA expression, prostate cancer cells; details: various concentrations of DT vs DMSO; PC3, DU145, 22RV1; FIG. 9 (h)-(l)
Protocol: as §1, §2

[8] = tested on: macrophages; assay: Macrophage mobility after DT treatment; details: macrophages treated with 5 or 10 μM DT vs DMSO
Protocol: An in vitro study to evaluate the effect of DT on macrophage and cancer cell migration was performed.
Macrophages were treated with a vehicle (DMSO), 5 or 10 μM DT. The mobility of the macrophages was not affected by DT. The macrophages were placed in an invasive assay, prepared accordingly to the steps in Example 10 using DT-treated prostate cancer cells (DU145 or PC3) incubated in 10% CD-FBS RPMI medium.

[9] = tested on: CCL2 in THP1 monocytes; assay: CCL2 ELISA of culture medium, THP1 monocytes; details: 5 or 10 μM DT, 24 hours, vs DMSO, FIG. 14 (b)
Protocol: It has been reported that increased CCL2 expression enhances cancer cell metastasis via macrophage recruitment. The effect of DT on CCL2 expression in RAW264.7 macrophages, THP1 monocytes and prostate cancer cells (metastatic DU145 and hormone therapy resistant and metastatic PC3) was examined by treating the cells with DMSO (control), 5 or 10 μM DT for 24 hours.
The culture medium was collected and the concentration of CCL2 was measured using ELISA assay.

For Cc1cccc2c3c(ccc12)C(=O)C1=C(OCC1C)C3=O (stereo not drawn) [DT, dihydroisotanshinone I], the “mRNA expression of skp2 and its downstream genes, lung cancer” value [1] was “effectively inhibit mRNA expression of skp2 and its downstream genes; also recorded: reduces skps and its downstream genes, MMP2, MMP9 and E-cadherin”, the “inhibition of ARK2 endometrial cancer cells” value [2] was “effective in inhibiting ARK1 and ARK2 endometrial cancer cells” and the “early apoptosis, late apoptosis and necrosis, breast cancer cells” value [3] was “more early apoptosis, late apoptosis and necrosis”. The “mRNA expression of skp2 and its downstream genes, target therapy resistant breast cancer” value [4] was “effectively inhibit mRNA expression of skp2 and its downstream genes; also recorded: reduces skps and its downstream genes, MMP2, MMP9 and E-cadherin”, the “early apoptosis, late apoptosis and necrosis, lung cancer cells” value [5] was “more early apoptosis, late apoptosis and necrosis; also recorded: induced lung cancer cell apoptosis/necrosis” and the “colorectal cancer cell migration into the wounded area” value [6] was “reduced chemotherapy resistant colorectal cancer cell migration; also recorded: reduced colon cancer cell migration into the wounded area”. The “mRNA expression of skp2 and its downstream genes, prostate cancer” value [7] was “effectively inhibit mRNA expression of skp2 and its downstream genes; also recorded: reduced skps and its downstream genes, MMP2 and MMP9”, the “mobility of the macrophages” value [8] was “not affected” and the “production of CCL2 in THP1 monocytes” value [9] was “effectively inhibit the production of CCL2”.
